Measurements: PubChem BioAssay (NCI)
Where “and” joins values, the source holds several entries; their conditions need not be identical. Equal values may be shown once.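 Growth conditions: 96-well plates. Treatment: test compound, 48 hours, 5 concentrations. Analysis: linear interpolation between bracketing concentrations; unreached endpoints set to highest concentration. GI50 = concentration required for 50% inhibition of growth. TGI marks complete inhibition of growth.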

Key:
Assay in all cases: inhibition of tumour cell growth, NCI panel, 48 h
TK-10 renal = system: TK-10 renal
SF-268 CNS = system: SF-268 CNS
SNB-19 CNS = system: SNB-19 CNS
CAKI-1 renal = system: CAKI-1 renal
NCI-H460 lung = system: NCI-H460 lung
IGROV1 ovarian = system: IGROV1 ovarian
MOLT-4 leukemia = system: MOLT-4 leukemia
LOX IMVI melanoma = system: LOX IMVI melanoma
M14 melanoma = system: M14 melanoma
HCT-116 colon = system: HCT-116 colon

Row | SMILES | TGI (TK-10 renal) [µM] | TGI (SF-268 CNS) [µM] | TGI (SNB-19 CNS) [µM] | TGI (CAKI-1 renal) [µM] | TGI (NCI-H460 lung) [µM] | TGI (IGROV1 ovarian) [µM] | TGI (MOLT-4 leukemia) [µM] | TGI (LOX IMVI melanoma) [µM] | TGI (M14 melanoma) [µM] | TGI (HCT-116 colon) [µM] | GI50 (TK-10 renal) [µM] | GI50 (SF-268 CNS) | GI50 (SNB-19 CNS) [µM] | GI50 (CAKI-1 renal) [µM] | GI50 (NCI-H460 lung) [µM] | GI50 (IGROV1 ovarian) [µM] | GI50 (MOLT-4 leukemia) [µM] | GI50 (LOX IMVI melanoma) [µM] | GI50 (M14 melanoma) [µM] | GI50 (HCT-116 colon) [µM]
1 | CCCCCCCCCC(=O)CC(=O)c1c(O)cccc1O | > 100 | > 100 | > 100 | > 100 | > 100 | > 100 | > 100 | 49.6 | 72.1 | > 100 |  |  |  |  |  |  |  |  |  | 
2 | COC(=O)CCC1=C(C)c2cc3[n-]c(cc4nc(cc5[n-]c(cc1n2)c(CCC(=O)OC)c5C)C=C4C)cc3C.[Cd+2] | 13.6 | 14.9 | > 100 | 38.1 | 3.2 | 8.82 | > 63.6 | > 74.6 | 22.8 | 25.3 | 5.25 | 3.14 µM | 25.6 | 12.4 | 0.868 | 3.03 | 5.08 | 13.1 | 5.54 | 8.42
3 | C=C(C)C1/C=C(/C(C)C)CC[C@]2(C)O[C@@H]2CC[C@H](C)CC1=O (stereo partly specified) | > 100 | > 100 | > 100 | > 100 | > 100 | > 100 | > 100 | 57.6 | > 100 | 42.2 | 66.6 | > 100 µM | > 100 | 35.3 | 50.3 | 77.8 | > 100 | 23.3 | 49.6 | 17.7
4 | CN(O)C(=O)Cc1ccccc1 | > 100 | > 100 | > 100 | > 100 | > 100 | > 100 | > 100 | > 100 | > 100 | > 100 |  |  |  |  |  |  |  |  |  | 
5 | COc1ccc(C(Nc2ncccn2)c2cc3c(cc2O)OCO3)cc1 (stereo unspecified) | 37.6 | 38.4 | 31.1 | 46.9 | 47.2 | 59.3 | 82 | 32.2 | 39.4 | 71.3 |  |  |  |  |  |  |  |  |  | 
6 | Oc1ccc2ccccc2c1N=Nc1ccccc1 | > 100 | > 100 | > 100 | > 100 | > 100 | > 100 | > 100 | > 100 | > 100 | > 100 |  | 25 µM and > 63.8 µM |  |  |  |  |  |  |  | 
7 | COc1cc2c(cc1C)n(O)c(C)c(C(=O)C/C(=N/NC(=O)C[N+](C)(C)C)C(=O)Nc1cccc(Cl)c1C)[n+]2=O | > 100 | > 100 | > 100 | > 100 | > 100 | > 100 | > 100 | > 100 | > 100 | > 100 |  |  |  |  |  |  |  |  |  | 
8 | COc1cc(C2C(C#N)=C(N)OC3=C2C(=O)c2ccccc2C3=O)cc(OC)c1OC (stereo unspecified) | > 100 | 60.7 | > 100 | 20.6 | 14.5 | 19.2 | 24.4 | 14 | 16.1 | 30.6 | 10 | 6.58 µM | 11.2 | 0.736 | 0.532 | 2.24 | 4.06 | 0.629 | 0.395 | 0.43
9 | COc1ccc2c(c1)CC[C@@H]1C2CC[C@]2(C)C(=O)NC(=O)CC12 (stereo partly specified) | > 100 | > 100 | > 100 | > 100 | > 100 | > 100 | > 100 | > 100 | > 100 | > 100 |  |  |  |  |  |  |  |  |  | 
10 | Cc1cc(C)c(C(=O)OC(c2ccccc2)C(c2ccccc2)N2CCOCC2)c(C)c1 (stereo unspecified) | > 100 | > 100 | > 100 | > 100 | > 100 | > 100 | > 100 | > 100 | > 100 | > 100 |  |  |  |  |  |  |  |  |  | 
11 | Oc1ccccc1-n1c(-c2ccccc2)ccc1-c1ccccc1 | 24.1 | 24.8 | 34.3 | 18.1 | 17.7 | 19.4 | 16.8 | 20.5 | 29.2 | 16.6 | 11.1 | 10.5 µM | 12.7 | 3.85 | 4.35 | 4.1 | 3.81 | 6.1 | 3.71 | 4.71
12 | O=C(/C=C/c1ccco1)Nc1ncc(Cc2ccc(F)cc2)s1 | > 100 | > 100 | > 100 | > 100 | > 100 | > 100 | > 100 | > 100 | > 100 | > 100 | 10.2 | 0.201 µM | 0.112 | 0.0525 | 0.0397 | 0.167 | 0.0825 | 0.0918 | 0.036 | 0.0408
13 | CC(C)(C)CC(C)(C)c1ccc(OCCOCCSC(=N)N)cc1 | 5.19 | 12.5 | 5.58 | 5.87 | 3.29 | 4.81 | 6.17 | 3.09 | 3.39 | 2.83 | 2.47 | 3.58 µM | 2.17 | 2.28 | 1.75 | 2.3 | 2.35 | 1.72 | 1.8 | 1.5
14 | CC(=O)Oc1cccc2c1C(=O)c1c(OC(C)=O)cc(C)cc1C2=O | > 100 | > 100 | > 100 | > 100 | > 100 | > 100 | > 100 | > 100 | > 100 | > 100 |  |  |  |  |  |  |  |  |  | 
15 | O=C1c2cc(CCl)sc2C(=O)c2ccsc21 | 3.41 | 0.676 | 0.527 | 3.09 | 2.63 | 2.83 | 0.47 | 0.149 | 0.0462 | 0.39 |  |  |  |  |  |  |  |  |  | 
16 | O=C1/C(=C/c2cccs2)CCC/C1=C\c1cccs1 | > 71.8 | > 100 | > 100 | > 100 | > 100 | 98.5 | > 100 | > 100 | > 100 | > 100 | 25.9 | 33.5 µM | > 54.1 | 55.8 | > 76.4 | 30.3 | > 100 | > 100 | > 100 | > 100
